The test system of assay [1] is Liposome. The assay can be described thus: Mannose concentrations required for 50% turbidity reduction n the Surface of Liposomes. The format is functional, subcellular.
In assay [2] the test system is Liposome. The assay can be described thus: Mannose concentrations required for 50% turbidity reduction on the Surface of Liposomes. The class given is functional, subcellular.

Values joined by “and” are separate entries in the source; they are usually repeats but may differ in a detail not shown here. Equal entries are not always repeated.

What is called IC50 is the midpoint of a concentration-inhibition curve. Read a high IC50 as weaker potency in that assay.

Turning to `CCCCCCCC/C=C\CCCCCCCCOCC(COCCOCCOCCOCCNC(=O)C(CCCCNC(=O)C(CCCCNC(=O)COCCOCCS[C@@H]1O[C@H](CO)[C@@H](O)[C@@H](O)[C@@H]1O)NC(=O)COCCOCCS[C@@H]1O[C@H](CO)[C@@H](O)[C@@H](O)[C@@H]1O)NC(=O)C(CCCCNC(=O)COCCOCCS[C@@H]1O[C@H](CO)[C@@H](O)[C@@H](O)[C@@H]1O)NC(=O)COCCOCCS[C@@H]1O[C@H](CO)[C@@H](O)[C@@H](O)[C@@H]1O)OCCCCCCCC/C=C\CCCCCCCC` (some centres not stated), the 50% inhibitory concentration (IC50) in assay [1] was 20 mM and 30 mM and 50 mM. For `CCCCCCCC/C=C\CCCCCCCCOCC(COCCOCCOCCOCCNC(=O)CCS[C@H]1OC(CO)[C@@H](O)[C@@H](O)C1O)OCCCCCCCC/C=C\CCCCCCCC` (some centres not stated), in assay [2], the IC50 was 2 mM and 4 mM and 5 mM.

(Values after ChEMBL document CHEMBL1136135, “Synthesis of an amphiphilic tetraantennary mannosyl conjugate and incorporation into liposome carriers” (Bioorg Med Chem Lett, 2003).)
